# Test results as given in ChEMBL document CHEMBL4837240 (J Med Chem, 2021).
# Active and inactive are the calls of the source. The calls are words filed in the database; no cut-off is given here.
# What was measured:
# MDA-MB-231 [1] = test: Anticancer activity against human MDA-MB-231 cells assessed as cell viability incubated for 48 hrs by MTT assay; conditions: MDA-MB-231, 48 h
# MDA-MB-436 = test: Anticancer activity against human MDA-MB-436 cells assessed as cell viability incubated for 48 hrs by MTT assay; conditions: MDA-MB-436, 48 h
# [2] = Toxicity in BALB/c mouse xenografted with MDA-MB-231 cells assessed as LDH level in blood at 300 mg/kg, po; assay type: organism-based; conditions: in vivo
# [3] = Toxicity in BALB/c mouse xenografted with MDA-MB-231 cells assessed as AST level in blood at 300 mg/kg, po; assay type: organism-based; conditions: in vivo
# [4] = Toxicity in BALB/c mouse xenografted with MDA-MB-231 cells assessed as ALT level in blood at 300 mg/kg, po; assay type: organism-based; conditions: in vivo
# MDA-MB-231 [5] = test: Antimetastatic activity against human MDA-MB-231 cells injected into vein of BALB/c mouse lung metastatic model assessed as less lung metastatic nodules at 25 mg/kg, po once a day measured on day 21; assay type: functional, organism-based; conditions: time 21.0 day
# [6] = Antiproliferative activity against VEGF-C-induced human dermal lymphatic endothelial cells assessed as cell viability incubated for 48 hrs by CCK-8 assay; assay type: functional, tissue-based; conditions: HDLEC
# [7] = Antiproliferative activity against VEGF-D-induced human dermal lymphatic endothelial cells assessed as cell viability incubated for 48 hrs by CCK-8 assay; assay type: functional, tissue-based; conditions: HDLEC
# HDLEC [8] = test: Anti-lymphangiogenic activity against human dermal lymphatic endothelial cells assessed as inhibition of VEGF-C-mediated tube formation at 100 nM incubated for 12 hrs by inverted microscopy; assay type: functional, tissue-based
# HDLEC [9] = test: Inhibition of cell migration in VEGF-C-induced human dermal lymphatic endothelial cells assessed as cell migration at 100 nM incubated for 24 hrs by inverted microscopy based by scratch wound healing assay; assay type: functional, tissue-based
# HDLEC [10] = test: Antimigratory activity against VEGF-C-induced human dermal lymphatic endothelial cells assessed as cell migration at 100 nM incubated for 12 hrs by inverted microscopy based by transwell assay; assay type: functional, tissue-based
# [11] = Toxicity in BALB/c mouse xenografted with MDA-MB-231 cells assessed as effect on body weight at 50 mg/kg, po; assay type: organism-based; conditions: in vivo
# [12] = Toxicity in BALB/c mouse xenografted with MDA-MB-231 cells assessed as creatinine level in blood at 300 mg/kg, po; assay type: organism-based; conditions: in vivo
# [13] = Toxicity in BALB/c mouse xenografted with MDA-MB-231 cells assessed as uric acid level in blood at 300 mg/kg, po; assay type: organism-based; conditions: in vivo
# [14] = Toxicity in BALB/c mouse xenografted with MDA-MB-231 cells assessed as change in heart at 300 mg/kg, po by hematoxylin and eosin staining based analysis; assay type: organism-based; conditions: in vivo
# [15] = Toxicity in BALB/c mouse xenografted with MDA-MB-231 cells assessed as change in liver at 300 mg/kg, po by hematoxylin and eosin staining based analysis; assay type: organism-based; conditions: in vivo
# [16] = Toxicity in BALB/c mouse xenografted with MDA-MB-231 cells assessed as change in spleen at 300 mg/kg, po by hematoxylin and eosin staining based analysis; assay type: organism-based; conditions: in vivo
# [17] = Toxicity in BALB/c mouse xenografted with MDA-MB-231 cells assessed as change in lung at 300 mg/kg, po by hematoxylin and eosin staining based analysis; assay type: organism-based; conditions: in vivo
# [18] = Toxicity in BALB/c mouse xenografted with MDA-MB-231 cells assessed as change in kidney at 300 mg/kg, po by hematoxylin and eosin staining based analysis; assay type: organism-based; conditions: in vivo
# [19] = Toxicity in BALB/c mouse xenografted with MDA-MB-231 cells assessed as change in liver at 25 mg/kg, po by hematoxylin and eosin staining based analysis; assay type: organism-based; conditions: in vivo
# [20] = target: Platelet-derived growth factor receptor beta (Homo sapiens, UniProt P09619); test: Inhibition of PDGFRbeta (unknown origin)
# [21] = target: Mast/stem cell growth factor receptor Kit (Homo sapiens, UniProt P10721); test: Inhibition of c-Kit (unknown origin)
# Sequence of Mast/stem cell growth factor receptor Kit (P10721 whole entry): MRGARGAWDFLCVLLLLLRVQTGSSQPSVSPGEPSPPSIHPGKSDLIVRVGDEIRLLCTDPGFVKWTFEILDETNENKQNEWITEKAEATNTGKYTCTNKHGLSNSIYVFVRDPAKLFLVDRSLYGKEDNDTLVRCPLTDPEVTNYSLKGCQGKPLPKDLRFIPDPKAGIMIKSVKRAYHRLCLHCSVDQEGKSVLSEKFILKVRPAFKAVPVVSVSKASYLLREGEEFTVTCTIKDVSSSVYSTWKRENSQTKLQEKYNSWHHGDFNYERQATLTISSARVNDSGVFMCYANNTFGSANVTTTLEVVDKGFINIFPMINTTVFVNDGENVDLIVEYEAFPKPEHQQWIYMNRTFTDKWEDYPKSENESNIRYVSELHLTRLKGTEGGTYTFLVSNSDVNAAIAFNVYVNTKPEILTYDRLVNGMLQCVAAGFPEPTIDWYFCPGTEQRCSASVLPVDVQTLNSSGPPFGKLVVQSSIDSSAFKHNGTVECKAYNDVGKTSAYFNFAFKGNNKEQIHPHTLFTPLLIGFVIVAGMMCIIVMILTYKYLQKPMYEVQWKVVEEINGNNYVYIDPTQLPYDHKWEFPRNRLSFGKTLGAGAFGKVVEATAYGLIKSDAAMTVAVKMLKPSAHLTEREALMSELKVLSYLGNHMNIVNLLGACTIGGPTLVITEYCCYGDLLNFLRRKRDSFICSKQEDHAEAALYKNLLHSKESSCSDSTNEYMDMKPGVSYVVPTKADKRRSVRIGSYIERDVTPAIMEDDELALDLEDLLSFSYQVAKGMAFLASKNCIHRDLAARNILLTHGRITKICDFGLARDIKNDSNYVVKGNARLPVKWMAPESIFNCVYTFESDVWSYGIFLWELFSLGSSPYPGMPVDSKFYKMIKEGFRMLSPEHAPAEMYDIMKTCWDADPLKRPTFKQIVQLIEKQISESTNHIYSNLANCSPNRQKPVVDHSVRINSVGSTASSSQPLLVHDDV
# Sequence of Platelet-derived growth factor receptor beta (P09619 whole entry): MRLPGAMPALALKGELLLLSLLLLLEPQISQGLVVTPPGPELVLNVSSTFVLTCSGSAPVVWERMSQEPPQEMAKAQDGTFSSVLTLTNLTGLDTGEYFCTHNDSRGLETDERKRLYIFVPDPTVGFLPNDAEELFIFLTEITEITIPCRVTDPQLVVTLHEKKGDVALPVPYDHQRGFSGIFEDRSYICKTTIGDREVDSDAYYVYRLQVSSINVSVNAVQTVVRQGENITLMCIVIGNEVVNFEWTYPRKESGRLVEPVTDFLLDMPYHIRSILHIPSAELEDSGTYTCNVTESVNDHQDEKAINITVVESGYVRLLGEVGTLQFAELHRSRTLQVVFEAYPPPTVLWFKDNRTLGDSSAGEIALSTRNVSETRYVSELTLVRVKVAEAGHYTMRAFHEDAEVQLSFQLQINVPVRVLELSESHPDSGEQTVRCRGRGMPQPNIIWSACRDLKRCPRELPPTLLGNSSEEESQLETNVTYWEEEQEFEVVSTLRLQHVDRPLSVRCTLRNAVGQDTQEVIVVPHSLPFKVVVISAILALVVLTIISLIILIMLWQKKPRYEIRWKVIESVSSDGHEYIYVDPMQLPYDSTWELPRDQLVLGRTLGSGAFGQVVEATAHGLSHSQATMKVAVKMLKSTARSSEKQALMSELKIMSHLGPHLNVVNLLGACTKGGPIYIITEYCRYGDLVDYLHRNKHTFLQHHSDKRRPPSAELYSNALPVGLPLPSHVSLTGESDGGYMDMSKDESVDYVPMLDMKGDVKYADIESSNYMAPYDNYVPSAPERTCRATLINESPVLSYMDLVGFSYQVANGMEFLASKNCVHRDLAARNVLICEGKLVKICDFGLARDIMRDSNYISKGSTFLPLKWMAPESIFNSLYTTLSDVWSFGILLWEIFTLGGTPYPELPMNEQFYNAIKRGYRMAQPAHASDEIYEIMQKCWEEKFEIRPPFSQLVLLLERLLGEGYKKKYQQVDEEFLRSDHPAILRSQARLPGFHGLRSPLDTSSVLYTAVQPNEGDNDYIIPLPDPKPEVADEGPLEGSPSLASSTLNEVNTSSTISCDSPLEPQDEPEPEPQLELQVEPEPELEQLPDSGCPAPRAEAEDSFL
IC50 (MDA-MB-231 [1]) [µM],IC50 (MDA-MB-436) [µM],Structure (SMILES),other results
9.27,11.9,C=CS(=O)(=O)N1CCN(c2ncnc3sc(-c4ccc(OC)nc4)cc23)CC1,
25.4,25.3,C=CS(=O)(=O)N1CCN(c2ccnc3ccc(-c4ccccc4)cc23)CC1,
40.4,38,C=CS(=O)(=O)N1CCN(c2ncnc3sc(-c4cn(S(=O)(=O)c5ccccc5)c5ccccc45)cc23)CC1,
21,25.9,C=CS(=O)(=O)N1CCN(c2ncnc3sc(-c4cccc5ncccc45)cc23)CC1,
4.6,6.25,CN1CCN(c2ccc(-c3cc4c(N5CCN(C(=O)Nc6ccc(OC(F)(F)F)cc6)CC5)ncnc4s3)cc2)CC1,
2.88,1.92,C=CS(=O)(=O)N1CCN(c2nc(OC[C@H]3CCCN3C)nc3sc(-c4ccc(N5CCN(C)CC5)cc4)cc23)[C@@H](C)C1,
13.2,18.3,CN1CCN(c2ccc(-c3cc4c(N5CCN(C(=O)Nc6cccc(F)c6)CC5)ncnc4s3)cc2)CC1,
> 50,> 50,CCn1c(N)c(C(=O)NC)c(=O)c2ccc(C#C[C@@](C)(O)COC)nc21,Activity [2]: Toxic; Activity [3]: Toxic; Activity [4]: Toxic; Activity (MDA-MB-231 [5]): Active; IC50 [6]: 0.307 µM; IC50 [7]: 0.72 µM; Activity (HDLEC [8]): Active; Activity (HDLEC [9]): Active; Activity (HDLEC [10]): Active; Activity [11]: Toxic; Activity [12]: Toxic; Activity [13]: Toxic; Activity [14]: Toxic; Activity [15]: Toxic; Activity [16]: Toxic; Activity [17]: Toxic; Activity [18]: Toxic; Activity [19]: Toxic
8.43,11.3,CC(C)c1cccc(C(C)C)c1NC(=O)N1CCN(c2ncnc3sc(-c4ccc(N5CCN(C)CC5)cc4)cc23)CC1,
8.33,12.4,CCCNC(=O)N1CCN(c2ncnc3sc(-c4ccc(N5CCN(C)CC5)cc4)cc23)CC1,
6.41,7.08,C=CS(=O)(=O)N1CCN(c2ncnc3sc(-c4ccc(C(F)(F)F)cc4)cc23)CC1,
10.4,15.1,C=CS(=O)(=O)N1CCN(c2ncnc3sc(-c4cn(C)nc4C(F)(F)F)cc23)CC1,
11.5,10.6,CN1CCN(c2ccc(-c3cc4c(N5CCN(S(=O)(=O)C6CC6)CC5)ncnc4s3)cc2)CC1,
4.2,3.44,CCS(=O)(=O)N1CCN(c2nc(OC[C@H]3CCCN3C)nc3sc(-c4ccc(C(=O)N5CCN(C)CC5)cc4)cc23)CC1,
6.18,6.92,C=CS(=O)(=O)N1CCN(c2ncnc3sc(-c4ccc(N5CCN(C)CC5)cc4)cc23)[C@@H](C)C1,
5.39,12.2,C=CC(=O)N1CCN(c2nc(OC[C@H]3CCCN3C)nc3sc(-c4ccc(C(=O)N5CCN(C)CC5)cc4)cc23)CC1,
10.3,14.3,CN1CCN(c2ccc(-c3cc4c(N5CCN(C(=O)Nc6ccccc6F)CC5)ncnc4s3)cc2)CC1,
7.55,8.76,C=CS(=O)(=O)N1CCN(c2ncnc3sc(-c4ccc(N5CCN(C)CC5)cc4)cc23)CC1,
> 50,> 50,C=CS(=O)(=O)N1CCN(c2ncnc3sc(C4=CCCCC4)cc23)CC1,
18.4,17.7,C=CS(=O)(=O)N1CCN(c2ncnc3sc(-c4ccc(N5CCOCC5)cc4)cc23)CC1,
3.01,2.29,C=CS(=O)(=O)N1CCN(c2nc(OC[C@H]3CCCN3C)nc3sc(-c4ccc(C#N)cc4)cc23)CC1,
29.9,28.4,C=CS(=O)(=O)N1CCN(c2ncnc3sc(-c4ccc(OC)cc4)cc23)CC1,
5.44,9.27,CN1CCN(c2ccc(-c3cc4c(N5CCN(C(=O)Nc6ccc(Cl)cc6)CC5)ncnc4s3)cc2)CC1,
8.65,9.66,C=CS(=O)(=O)N1CCN(c2ncnc3sc(-c4ccc(C(=O)N5CCN(C)CC5)cc4)cc23)CC1,
7.59,7.09,CN1CCN(c2ccc(-c3cc4c(N5CCN(C(=O)Nc6ccccc6)CC5)ncnc4s3)cc2)CC1,
3.33,1.53,C=CS(=O)(=O)N1CCN(c2nc(OC[C@H]3CCCN3C)nc3sc(-c4ccc(C(=O)N5CCN(C)CC5)cc4)cc23)[C@@H](C)C1,
5.9,8.67,CN1CCN(c2ccc(-c3cc4c(N5CCN(S(=O)(=O)/C=C/c6ccccc6)CC5)ncnc4s3)cc2)CC1,
11.4,20.2,CN1CCN(c2ccc(-c3cc4c(N5CCN(C(=O)Nc6ccc(F)cc6F)CC5)ncnc4s3)cc2)CC1,
3.18,4.08,C=CS(=O)(=O)N1CCN(c2nc(OCC3CCCCN3C)nc3sc(-c4ccc(C#N)cc4)cc23)CC1 (centres undefined),

# Second part, the compound before the results:
Structure (SMILES),IC50 (MDA-MB-231 [1]) [µM],IC50 (MDA-MB-436) [µM],other results
C=CS(=O)(=O)N1CCN(c2ncnc3sc(-c4ccnc(Cl)c4)cc23)CC1,27.7,30.1,
C=CS(=O)(=O)N1CCN(c2ncnc3sc(-c4ccccc4)cc23)CC1,54.2,21.1,
C=CS(=O)(=O)N1CCN(c2nc(OC[C@H]3CCCN3C)nc3sccc23)CC1,> 50,> 50,
C=CS(=O)(=O)N1CCN(c2ccn3ncc(-c4ccc(N5CCOCC5)cc4)c3n2)CC1,42.3,16.2,
C=CS(=O)(=O)N1CCN(c2nc(OC[C@H]3CCCN3C)nc3sc(-c4ccc(C(=O)N5CCN(C)CC5)cc4)cc23)CC1,4.2,3.44,
C=CS(=O)(=O)N1CCN(c2ncnc3sc(-c4cccs4)cc23)CC1,34.1,39,
CN1CCN(c2ccc(-c3cc4c(N5CCN(S(=O)(=O)N6CCCCC6)CC5)ncnc4s3)cc2)CC1,8.13,7.57,
C=CS(=O)(=O)N1CCN(c2nc(OC[C@H]3CCCN3C)nc3sc(-c4ccc(OC)nc4)cc23)CC1,3.56,4.98,
CNC(=O)c1cc(COc2nnc(Nc3ccc(Cl)cc3)c3ccoc23)ccn1 [TELATINIB],,,IC50 [20]: 0.015 µM; IC50 [21]: 0.001 µM
CN1CCN(c2ccc(-c3cc4c(N5CCN(S(=O)(=O)c6ccccc6)CC5)nc(OCC5CCCCN5C)nc4s3)cc2)CC1 (centres undefined),4.42,10.7,
C=CS(=O)(=O)N1CCN(c2ncnc3sc(-c4ccc(F)nc4)cc23)CC1,16,17.5,
C=CS(=O)(=O)N1CCN(c2ncnc3sc(-c4ccc(C#N)cc4)cc23)CC1,8.05,9.17,
C=CS(=O)(=O)N1CCN(c2nc(OC[C@H]3CCCN3C)nc3sc(-c4ccc(N5CCN(C)CC5)cc4)cc23)CC1,0.76,0.54,
COc1ccc(NC(=O)N2CCN(c3ncnc4sc(-c5ccc(N6CCN(C)CC6)cc5)cc34)CC2)cc1,20.9,30.1,
CN1CCN(c2ccc(-c3cc4c(N5CCN(C(=O)Nc6ccc(C#N)cc6)CC5)ncnc4s3)cc2)CC1,3.93,5.01,
C=CS(=O)(=O)N1CCN(c2ccn3ncc(-c4ccccc4)c3n2)CC1,38.3,19.5,
C=CS(=O)(=O)N1CCN(c2ncnc3sc(-c4cccc5ccccc45)cc23)CC1,23.7,28.1,
CCS(=O)(=O)N1CCN(c2ncnc3sc(-c4ccc(N5CCN(C)CC5)cc4)cc23)CC1,7.33,10.6,
C=CS(=O)(=O)N1CCN(c2ncnc3sc(-c4cnn(Cc5ccccc5)c4)cc23)CC1,19.1,18.3,
CN1CCN(c2ccc(-c3cc4c(N5CCN(C(=O)Nc6cc(C(F)(F)F)ccc6F)CC5)ncnc4s3)cc2)CC1,9.09,8.84,
C=CS(=O)(=O)N1CCN(c2ncnc3ccc(-c4ccccc4)cc23)CC1,47.9,23.4,
COc1ccccc1NC(=O)N1CCN(c2ncnc3sc(-c4ccc(N5CCN(C)CC5)cc4)cc23)CC1,23.2,26.3,
C=CS(=O)(=O)N1CCN(c2ncnc3sc(-c4cc(Br)cnc4F)cc23)CC1,24.1,28.4,
C=CS(=O)(=O)N1CCN(c2ncnc3sc(-c4c(C)noc4C)cc23)CC1,28.2,34.6,
